Data published in patent US10757943B2, “Thidiazuron mixtures and uses thereof” (Valent BioSciences LLC, priority 2017, dated 2020).

What was measured:
Type in all cases: in vivo
Concord grape vines [1] = experiment: Bud break and shoot growth of potted dormant Concord grape vines in the greenhouse (Example 1); conditions: for % bud break (vines with at least one bud break): hydrogen cyanamide 10,000 ppm, 17-0-0 197,100 ppm, 15-0-0 239,060 ppm, ACC 1,000 ppm; for Initial to 50% Bud Break: synchrony of bud break; for 50% Bud Break (DAT): time to 50% bud break
Text: An aqueous 50% hydrogen cyanamide solution (Sigma-Aldrich, St. Louis, Mo. USA) was used as the source of hydrogen cyanamide. The commercial product, Dormex® contains 50% hydrogen cyanamide (w/v) in water.
Erger® was used as the source of 15-0-0 fertilizer. (Erger is a registered trademark of Valagro S.P.A., Italy and is available from Helena Chemical Company, Collierville, Tenn., USA). Erger® contains 15% total nitrogen as 3.1% ammoniacal nitrogen, 5.8% nitrate nitrogen and 6.1% urea nitrogen and 3.3% calcium derived from ammonium nitrate, calcium nitrate and urea. As used herein, the term “15-0-0 fertilizer” refers to the Erger® formulation above and all formulations described in International PCT application publication WO/2001/037653A2 by Valagro S.P.A., Italy, which is incorporated, herein, in its entirety.
CAN-17 was used as the source of 17-0-0 fertilizer. CAN-17 contains 17% total nitrogen as 4.6% ammonium nitrogen and […] nitrate nitrogen and 1.3% urea nitrogen and 8.8% calcium derived from ammonium nitrate and calcium nitrate. CAN-17 is available from J.R. Simplot Company (Boise, Id., USA).
To assess the ability of mixtures of the invention to promote and synchronize bud break these mixtures were applied to Concord grape vines and examined for bud break (initiation of growth) and subsequent shoot development. Specifically, 1 year old dormant bare rooted Concord grape vines were planted in pots containing Pro-Mix® BX potting soil (Pro-Mix is a registered trademark of and available from Premier Horticulture Ltd.) and pruned to 5 nodes on a single shoot. Aqueous solutions of thidiazuron, hydrogen cyanamide, 15-0-0 fertilizer, 17-0-0 fertilizer and 1-aminocyclopropane-1-carboxylic acid (“ACC”), and mixtures thereof were each applied individually or sequentially or co-applied to the first-year wood of separate Concord grape vines. Plants were grown in the greenhouse for 49 days and evaluated for percent of vines showing bud break, or relief from dormancy, periodically between 7 days and the conclusion of the experiment. […] At 49 days after treatment (DAT), the plants were sacrificed and measured for total number of flower clusters, total new shoot length, longest new shoot, combined new shoot fresh weight and combined new shoot dry weight. New shoot growth is the growth arising from the dormant buds not including the woody growth that was planted and gave rise to the new growth.
Synergy is calculated by the Abbott method: %Cexp=A+B−(AB/100), where % Cexp is the expected efficacy and in which A and B are the speed of bud break or shoot length or shoot weight given by the single active ingredients. If the ratio between the experimentally observed efficacy of the mixture Cobs and the expected efficacy of the mixture is greater than 1, synergistic interactions are present in the mixture” (Gisi, Synergistic Interaction of Fungicides in Mixtures, The American Phytopathological Society, 86:11, 1273-1279,1996).

[2] = test system: Red Flame seedless grape vines; experiment: Bud break and shoot length of field-grown Red Flame seedless grape vines (Example 2); conditions: hydrogen cyanamide 10,000 ppm, thidiazuron 300 ppm, 17-0-0 197,100 ppm
Procedure: To assess the ability of mixtures of the invention to promote and synchronize bud break these mixtures were applied to field-grown Red Flame seedless grape vines and examined for bud break (initiation of growth) and subsequent shoot development. Thidiazuron, hydrogen cyanamide, 17-0-0 fertilizer, and mixtures thereof were each applied individually or sequentially (co-applied) to the separate spurs of Red Flame seedless grape vines. Plants were evaluated for bud break at 31 days after treatment, for percent bud break and total new shoot length at 48 days after treatment. Results of these evaluations can be seen below in Tables 4 and 5.

Concord grape vines [3] = experiment: Bud break and harvest weight of endo-dormant two-year-old Concord grape vines in the greenhouse (Example 4); conditions: thidiazuron ppm and 17-0-0 % as in label, 15-0-0 65,880 ppm
Text: Two-year-old Concord grape vines were purchased commercially. These vines had just lost their leaves and were shipped shortly after they were dug at the nursery. Thus, the vines had not fulfilled their chilling requirement and were considered endo-dormant. The vines were potted individually into one-gallon pots containing ProMix® BX immediately upon receipt and subsequently pruned back to the five proximal buds on the one-year old wood. Within two hours of pruning, treatment solutions were applied using a foam paint brush to the remaining one-year old wood, including the cut end from pruning. Two treatments, water and hydrogen cyanimide, which acted as negative and positive controls, respectively, were included in all studies.
Treatment solutions were made fresh in water and contained 1% (v/v) non-ionic surfactant. In all cases, two treatment solutions were applied to the plants. Where a single component was used for a treatment, the first application solution was water containing surfactant; in the cases where combination treatments were made to the same plant, the first treatment solution was allowed to dry prior to applying the second.
The treated plants were kept in a conventional greenhouse under supplemental lighting. Greenhouse conditions were 65:60° F. Day:Night temperature with a 16:8 hour photoperiod. Relief from dormancy was assessed every two days during the course of the study. Dormancy was considered relieved upon the emergence of a green bud. Both the number of ‘broken buds’ per plant and the date of relief of plants from dormancy were assessed. At the close of the study, new growth was removed from each of the treated plants and weighed.

[4] = 49 days post treatment, thidiazuron ppm as in label, other concentrations as in Table 1
[5] = thidiazuron 300 ppm unless label states other, other concentrations as in Table 1
[6] = thidiazuron 300 ppm unless label states other, other concentrations as in Table 1, listed as hydrogen cyanamide

For `N#CN` [Hydrogen Cyanamide, hydrogen cyanamide], the “% bud break (vines with at least one bud break)” value (Concord grape vines [1]; 7 DAT, thidiazuron 300 ppm unless label states other) was 0%, the “% bud break (vines with at least one bud break)” value (Concord grape vines [1]; 10 DAT, thidiazuron 300 ppm unless label states other) was 11.1% and the “% bud break (vines with at least one bud break)” value (Concord grape vines [1]; 13 DAT, thidiazuron 300 ppm unless label states other) was 44.4%. For the same compound, the “% bud break (vines with at least one bud break)” value (Concord grape vines [1]; 15 DAT, thidiazuron 300 ppm unless label states other) was 66.7%, the “% bud break (vines with at least one bud break)” value (Concord grape vines [1]; 17 DAT, thidiazuron 300 ppm unless label states other) was 77.8% and the “% bud break (vines with at least one bud break)” value (Concord grape vines [1]; 20 DAT, thidiazuron 300 ppm unless label states other) was 88.9%. The “% bud break (vines with at least one bud break)” value (Concord grape vines [1]; 22 DAT, thidiazuron 300 ppm unless label states other) was 88.9%, the “% bud break (vines with at least one bud break)” value (Concord grape vines [1]; 24 DAT, thidiazuron 300 ppm unless label states other) was 88.9% and the “% bud break (vines with at least one bud break)” value (Concord grape vines [1]; 27 DAT, thidiazuron 300 ppm unless label states other) was 88.9%. The “% bud break (vines with at least one bud break)” value (Concord grape vines [1]; 29 DAT, thidiazuron 300 ppm unless label states other) was 88.9%, the “% bud break (vines with at least one bud break)” value (Concord grape vines [1]; 31 DAT, thidiazuron 300 ppm unless label states other) was 88.9% and the “% bud break (vines with at least one bud break)” value (Concord grape vines [1]; 34 DAT, thidiazuron 300 ppm unless label states other) was 100.0%. The “% bud break (vines with at least one bud break)” value (Concord grape vines [1]; 36 DAT, thidiazuron 300 ppm unless label states other) was 100.0%, the “% bud break (vines with at least one bud break)” value (Concord grape vines [1]; 38 DAT, thidiazuron 300 ppm unless label states other) was 100.0% and the “% bud break (vines with at least one bud break)” value (Concord grape vines [1]; 41 DAT, thidiazuron 300 ppm unless label states other) was 100.0%. The “% bud break (vines with at least one bud break)” value (Concord grape vines [1]; 43 DAT, thidiazuron 300 ppm unless label states other) was 100.0%, the “% bud break (vines with at least one bud break)” value (Concord grape vines [1]; 49 DAT, thidiazuron 300 ppm unless label states other) was 100.0% and the “Combined Shoot Dry Weight” value (Concord grape vines [1]; [4]) was 9.0 g. For the same compound, the “Combined Shoot Fresh Weight” value (Concord grape vines [1]; [4]) was 39.3 g, the “Longest Shoot Length” value (Concord grape vines [1]; [4]) was 83.8 cm and the “Total # of Flower Clusters” value (Concord grape vines [1]; [4]) was 0.0. For the same compound, the “Total Shoot Length” value (Concord grape vines [1]; [4]) was 129.8 cm, the “Dry Weight (g)/25% Bud Break to Harvest (d)” value (Concord grape vines [1]; combined shoot dry weight at 49 DAT normalised by days from 25% bud break to harvest) was 0.24 g/day and the “Dry Weight (g)/50% Bud Break to Harvest (d)” value (Concord grape vines [1]; combined shoot dry weight at 49 DAT normalised by days from 50% bud break to harvest) was 0.26 g/day. For the same compound, the “Fresh Weight (g)/50% Bud Break to Harvest (d)” value (Concord grape vines [1]; combined shoot fresh weight at 49 DAT normalised by days from 50% bud break to harvest) was 1.12 g/day, the “50% Bud Break to Harvest” value (Concord grape vines [1]; harvest at day 49, thidiazuron 300 ppm unless label states other, other concentrations as in Table 1) was 35 days and the “Initial to 50% Bud Break” value (Concord grape vines [1]; [5]) was 5 days. For the same compound, the “Initial to 50% Bud Break” value (Concord grape vines [1]; [6]) was ≤ 5 days, the “25% Bud Break (DAT)” value (Concord grape vines [1]; time to 25% bud break, thidiazuron 300 ppm unless label states other, other concentrations as in Table 1) was 11 DAT and the “50% Bud Break (DAT)” value (Concord grape vines [1]; [5]) was 14 DAT. The “50% Bud Break (DAT)” value (Concord grape vines [1]; [6]) was ≤ 14 DAT, the “Broken Buds per plant (Average Buds Broken per Spur)” value ([2]; 31 days after treatment) was 0.53 and the “% Broken Buds” value ([2]; 48 days after treatment) was 58.8%. The “Total Shoot Length” value ([2]; 48 days after treatment) was 25.2, the “Fresh Shoot Weight (g)/Plant” value (Concord grape vines [3]; new growth at close of study) was 31.49 g and the “50% Bud Break (DAT)” value (Concord grape vines [3]) was 16 DAT. The “100% Bud Break (DAT)” value (Concord grape vines [3]) was 33 DAT, the “Initial to 50% Bud Break” value (Concord grape vines [3]) was 2 and the “Number of Buds Broken/Plant” value (Concord grape vines [3]) was 1.5.
